Values joined by “and” are separate entries in the source; they are usually repeats but may differ in a detail not shown here. Equal entries are not always repeated. Where two headings read alike, the source gives them in different places.
How the values were obtained:
[1] = system: FLT3; settings: cited from earlier work
[2] = Plasma concentrations of midostaurin and metabolites
[3] = clinical; settings: human, plasma, intravenous, cycle 1, day 1; for AUC(0-t): AUC (0–24 h); for concentration at 24 h: C24 h
[4] = Concomitant (days 1-7 and 15-21), 50 mg BID, Induction cycle 1, day 1
[5] = Concomitant, 50 mg BID, First consolidation cycle, day 15.5
[6] = Concomitant, 50 mg BID, Induction cycle 1, Day 1 (+ 2 h)
[7] = Concomitant, 50 mg BID, Induction cycle 1, Day 1 (+ 4 h)
[8] = Concomitant, 50 mg BID, Induction cycle 1, day 2
[9] = Concomitant, 50 mg BID, Induction cycle 1, day 4
[10] = Concomitant, 50 mg BID, Induction cycle 1, day 15 (+ 2 h)
[11] = Concomitant, 50 mg BID, Induction cycle 1, day 15 (+ 4 h)
[12] = Sequential (days 8-21), 50 mg BID, Induction cycle 1, day 8
[13] = Sequential, 50 mg BID, First consolidation cycle, day 1.5
[14] = Sequential, 50 mg BID, First consolidation cycle, day 15.5
[15] = Sequential, 50 mg BID, First consolidation cycle, day 29.5
[16] = Sequential, 50 mg BID, Induction cycle 1, day 8 (+ 2 h)
[17] = Sequential, 50 mg BID, Induction cycle 1, day 8 (+ 4 h)
[18] = Sequential, 50 mg BID, Induction cycle 1, day 9
[19] = Sequential, 50 mg BID, Induction cycle 1, day 15
[20] = Sequential, 50 mg BID, Induction cycle 1, day 22.5
[21] = Sequential, 50 mg BID, Induction cycle 1, day 29.5
[22] = Concomitant midostaurin n = 13, cycle 1, day 1
[23] = Sequential midostaurin n = 13, cycle 1, day 1
[24] = Mean ± SD, Concomitant midostaurin n = 13
[25] = Mean ± SD, Sequential midostaurin n = 13
[26] = Median, Concomitant midostaurin n = 13
[27] = Median, Sequential midostaurin n = 13

CO[C@@H]1[C@H](N(C)C(=O)c2ccccc2)C[C@H]2O[C@]1(C)n1c3ccccc3c3c4c(c5c6ccccc6n2c5c31)C(=O)N[C@H]4O [CGP52421]
Inhibition of FLT3 in vitro [1]: capable of inhibiting FLT3 in vitro
Plasma concentration, Max [2, 4]: LLOQ
Plasma concentration, Median [2, 4]: LLOQ
Plasma concentration, Min [2, 4]: LLOQ
Plasma concentration, Max [2, 5]: 810 ng/mL
Plasma concentration, Min [2, 5]: 810 ng/mL
Plasma concentration, individual values (n = 2; merged Median/Min/Max cell) ([2]; Concomitant, 50 mg BID, First consolidation cycle, day 29.5): 809 ng/mL and 2990 ng/mL
Plasma concentration, Max [2, 6]: 812 ng/mL
Plasma concentration, Median [2, 6]: 170 ng/mL
Plasma concentration, Min [2, 6]: 52.9 ng/mL
Plasma concentration, Max [2, 7]: 209 ng/mL
Plasma concentration, Median [2, 7]: 137 ng/mL
Plasma concentration, Min [2, 7]: 115 ng/mL
Plasma concentration, Max [2, 8]: 460 ng/mL
Plasma concentration, Median [2, 8]: 361 ng/mL
Plasma concentration, Min [2, 8]: 228 ng/mL
Plasma concentration, Max [2, 9]: 1090 ng/mL
Plasma concentration, Median [2, 9]: 832 ng/mL
Plasma concentration, Min [2, 9]: 570 ng/mL
Plasma concentration, Max [2, 10]: 1920 ng/mL
Plasma concentration, Median [2, 10]: 1170 ng/mL
Plasma concentration, Min [2, 10]: 814 ng/mL
Plasma concentration, Max [2, 11]: 1860 ng/mL
Plasma concentration, Median [2, 11]: 1465 ng/mL
Plasma concentration, Min [2, 11]: 893 ng/mL
Plasma concentration, Max [2, 12]: LLOQ
Plasma concentration, Median [2, 12]: LLOQ
Plasma concentration, Min [2, 12]: LLOQ
Plasma concentration, Max [2, 13]: 3110 ng/mL
Plasma concentration, Median [2, 13]: 1740 ng/mL
Plasma concentration, Min [2, 13]: 835 ng/mL
Plasma concentration, Max [2, 14]: 4210 ng/mL
Plasma concentration, Median [2, 14]: 2685 ng/mL
Plasma concentration, Min [2, 14]: 1490 ng/mL
Plasma concentration, Max [2, 15]: 5320 ng/mL
Plasma concentration, Median [2, 15]: 2230 ng/mL
Plasma concentration, Min [2, 15]: 1440 ng/mL
Plasma concentration, Max [2, 16]: 194 ng/mL
Plasma concentration, Median [2, 16]: 70.8 ng/mL
Plasma concentration, Min [2, 16]: 35.9 ng/mL
Plasma concentration, Max [2, 17]: 207 ng/mL
Plasma concentration, Median [2, 17]: 113 ng/mL
Plasma concentration, Min [2, 17]: 58.2 ng/mL
Plasma concentration, Max [2, 18]: 414 ng/mL
Plasma concentration, Median [2, 18]: 293 ng/mL
Plasma concentration, Min [2, 18]: 145 ng/mL
Plasma concentration, Max [2, 19]: 1670 ng/mL
Plasma concentration, Median [2, 19]: 1460 ng/mL
Plasma concentration, Min [2, 19]: 903 ng/mL
Plasma concentration, Max [2, 20]: 3540 ng/mL
Plasma concentration, Median [2, 20]: 2800 ng/mL
Plasma concentration, Min [2, 20]: 1630 ng/mL
Plasma concentration, Max [2, 21]: 3330 ng/mL
Plasma concentration, Median [2, 21]: 1955 ng/mL
Plasma concentration, Min [2, 21]: 1350 ng/mL
Half-life (qualitative) ([2]; midostaurin 50 mg twice daily, stable levels between dosing treatment phases): long half-life

CN(C(=O)c1ccccc1)[C@@H]1C[C@H]2O[C@@](C)([C@@H]1O)n1c3ccccc3c3c4c(c5c6ccccc6n2c5c31)C(=O)NC4 [CGP62221]
Inhibition of FLT3 in vitro [1]: capable of inhibiting FLT3 in vitro

Nc1ccn([C@@H]2O[C@H](CO)[C@@H](O)[C@@H]2O)c(=O)n1 [cytarabine]
Pharmacokinetic interaction with midostaurin (data not shown): No interaction

COc1cccc2c1C(=O)c1c(O)c3c(c(O)c1C2=O)C[C@@](O)(C(C)=O)C[C@@H]3O[C@H]1C[C@H](N)[C@H](O)[C@H](C)O1 [daunorubicin]
CL, Mean ± SD [22]: 269 ± 130 L/h/m^2
CL, Median [22]: 283 L/h/m^2
Vz, Mean ± SD [22]: 717 ± 266 L/m^2
Vz, Median [22]: 694 L/m^2
C24 h, Mean ± SD [23]: 0 ± 0 ng/mL
CL, Mean ± SD [23]: 330 ± 226 L/h/m^2
CL, Median [23]: 270 L/h/m^2
Vz, Mean ± SD [23]: 946 ± 696 L/m^2
Vz, Median [23]: 775 L/m^2
C24 h, Median (Sequential midostaurin n = 13, cycle 1, day 1, LLOQ is 5 ng/mL): LLOQ
Effect of midostaurin on clearance (midostaurin 50 mg twice daily): does not seem to be affected
C24 h, Concomitant/sequential midostaurin (ratio, cycle 1, day 1): 17.4/LLOQ
AUC(0-t) [3, 24]: 373 ng·h/mL
AUC(0-t) [3, 25]: 267 ng·h/mL
AUC(0-t) [3, 26]: 189 ng·h/mL
AUC(0-t) [3, 27]: 159 ng·h/mL
concentration at 24 h [3, 24]: 17.4 ng/mL
concentration at 24 h [3, 26]: 17.4 ng/mL
Cmax [3, 24]: 98 ng/mL
Cmax [3, 25]: 229 ng/mL
Cmax [3, 26]: 89 ng/mL
Cmax [3, 27]: 76 ng/mL
Tmax [3, 24]: 30 min
Tmax [3, 25]: 36 min
Tmax [3, 26]: 30 min
Tmax [3, 27]: 30 min

From PMC4118284 (Leukemia, 2012)
